In patent publication US20140024683A1, “CHLORIDE CHANNEL AND CHLORIDE TRANSPORTER MODULATORS FOR THERAPY IN SMOOTH MUSCLE DISEASES” (priority 2011, published 2014):

Assays:
[1] = test system: human airway smooth muscle cells; test: Whole cell current clamp recording of membrane potential; format: cell-based
Description: Induced electrophysiological changes in membrane potential and current were measured using traditional whole cell patch clamp methods. Immortalized human airway smooth muscle cells were grown to confluence on collagen-treated T25 flasks. Collagenase type IV in SmBM2 medium (Lonza, Walkersville, Md.) was used to release cells adherent to the collagen matrix in the flask. Medium with cells in suspension was then harvested in a 10-ml conical tube and centrifuged at 300×g. Supernatant was removed, and the pellet was resuspended in SmBM2 medium and transferred into collagen-treated glass bottom 1-cm Petri dishes at about 10% confluence. Each dish was then incubated at 37° C. and 5% CO2 for 1-4 hours for reattachment of cells to glass-bottom Petri dishes.
Glass-bottom dishes served as a disposable recording chamber. ALA VM-8, an 8-chamber pressure-driven drug application system, was used in a still bath of extracellular salt solution. Whole-cell intracellular voltage recordings under current clamp conditions were performed with a 2-kHz Bessel filter, recording at 10 kHz using an Axopatch 200b amplifier (Axon Instruments, Foster City, Calif., USA). Electrodes were pulled using a P-97 micropipette puller from 1.5-mm OD borosilicate capillary glass (Sutter Instruments, Novato, Calif., USA). Glass electrode resistances ranged from 5 to 10 MO with intracellular solution. Whole-cell intracellular current recordings under voltage-clamp conditions were performed with a 2-kHz Bessel filter, recording at 10 kHz using an Axopatch 200b amplifier. For current measurements (FIG. 11) intracellular solutions consisted of (in mM) 140 TEA-Cl, 5 MgATP, 5 EGTA, 1 MgCl2, 10 HEPES, and 5 CaCl2 (pH 7.2). Extracellular solution consisted of (in mM) 134 NaCl, 1.4 KCl, 10 HEPES, 1 MgCl2, 1.8 CaCl2, and 10 glucose (pH 7.4). This induced the classic spontaneously transient inward currents (STICs) and spontaneously transient outward currents (STOCs) well described in this cell type. STOCs are believed to represent activation of calcium activated potassium (KCa) channels while STICs are believed to represent activation of CaCCs. TEA-Cl was included in the buffer to enhance STICs which were then recorded during the addition of 100 μM niflumic acid. When recording TEA- and niflumic acid-induced responses on membrane potential (ΔmV), the intracellular solutions contained (in mM) 140 KCl, 5 MgATP, 5 EGTA, 1 MgCl2, 10 HEPES, and 5 CaCl2 (pH 7.2), and the extracellular solutions consisted of (in mM) 134 NaCl, 5 MgATP, 5 EGTA, 1 MgCl2, 10 HEPES, and 5 CaCl2 (pH 7.2). All recordings were analyzed on Clampfit 8.0 software (Molecular Devices).

[2] = test system: guinea pig tracheal rings; test: Organ bath muscle force, TEA-induced contraction of guinea pig tracheal rings (Examples 1, 4, 13); settings: 10 mM TEA; 100 μM niflumic acid
Description: Epithelial denuded guinea pig tracheal rings were suspended in organ baths under 1 g resting tension with continuous digital recordings of muscle force. In separate studies, guinea pig airway smooth muscle cells were enzymatically dispersed and cultured.
Human muscle tissue was acquired from excess lung airways trimmed during surgery from healthy lung transplant donors. Acquired tissue was stored overnight at […]. Airway smooth muscle contractions measured ex vivo in organ baths were performed as previously described (Gallos et al., 2008; Gallos et al., 2009, Gallos et al., 2011; Gleason et al., 2010; Yim et al., 2011; Mitzuta et al., 2008). Closed guinea pig tracheal rings or strips of human airway smooth muscle (tracheal or main stem bronchus) were suspended in organ baths, which had 95% oxygen constantly perfusing through Dulbecco's Modified Eagle Medium. Rings were cut on the cartilaginous borders of the smooth muscle. The epithelial layer was dissected under microscopic assistance. Briefly, tissues were suspended in a water-jacketed (37° C.) 2-ml organ bath (Radnoti Glass Technology, Monrovia, Calif.) and attached to a Grass FT03 force transducer (Grass Telefactor, West Warwick, R.I.) coupled to a computer via BioPac hardware and Acqknowledge 7.3.3 software (Biopac Systems, Goleta, Calif.). Kreb's-Henseleit (KH) buffer was continuously bubbled with 95% oxygen and 5% carbon dioxide and tissues were allowed to equilibrate at 1 g (guinea pig) or 1.5 g (human) isotonic force for 1 hour with fresh KH buffer changes every 15 minutes.
Following equilibration, in guinea pig experiments, the capsaicin analog N-vanillylnonanamide (10 μM final) was added to the organ baths to first activate and then deplete nonadrenergic, noncholinergic nerves. […]. In experiments with human tissue, no vanillylnonanamide pretreatment was done. To avoid bias between treatment groups, tissues were contracted to individually calculated EC50 values for acetylcholine and tissues with similar Emax values were randomly assigned to treatments within individual experiments. Following extensive KH buffer changes (8-9 times) tissues were allowed to stabilize at isotonic resting tension (about 1.0 g). To remove confounding effects of other procontractile pathways, each bath received a complement of antagonists 20 minutes prior to subsequent contractile challenge. The antagonists included pyrilamine (10 μM; H1 histamine receptor antagonist), and tetrodotoxin (1 μM; blocker of endogenous cholinergic or C-fiber neuronal effects) in guinea pig experiments or pyrilamine and 10 μM MK571 (leukotriene receptor antagonist) in human tissue experiments. […]
Airway smooth muscle contractions measured ex vivo in organ baths were performed as set forth above. […]

With `O=C(O)c1cccnc1Nc1cccc(C(F)(F)F)c1` [niflumic acid] as the compound, how does the “membrane potential (whole cell current clamp)” value ([1]; 100 μM niflumic acid) read?
The value was “hyperpolarizes the plasma membrane”.

And the “membrane potential (whole cell current clamp) after depolarization” value ([1]; following depolarization with TEA chloride)?
The value was “reverses membrane potential”.

What about the “relaxation of TEA-induced contraction” value [2] of the same compound?
The value was 82.5%.
